Data from patent US20080070952A1, “Inhibition or Treatment of Dyskinesia” (PROXIMAGEN LTD.,, priority 2005, published 2008).

system: L-DOPA primed MPTP treated animals (common marmosets); test: L-DOPA induced motor activity, motor disability and dyskinesia (chorea, dystonia) in L-DOPA primed MPTP treated marmosets; assay type: in vivo, Callithrix Jacchus; settings: same protocol as Examples 1-8; NOS inhibitors s.c., Vinyl L-NIO 6 mg/kg, 7-NI 20 mg/kg, L-NIO dose not given
Description: In the following procedure, all NOS inhibitors (nNOSi) were administered subcutaneously. All other drugs with the exception of 7-nitroindazole were dissolved in deionised water or for oral administration dissolved in deionised water containing 10% sucrose and were administered orally. 7-nitroindazole was dissolved in a 30:70 v/v in water and DMSO. In experiments using ropinirole, animals were pre-treated with a single oral dose of domperidone (5 mg·kg^−1) as an anti-emetic, 30 min before. Carbidopa and domperidone were given as suspension in deionised water and 10% sucrose.
Adult common marmosets of either sex (Callithrix Jacchus; n=6), weighing between 310 to 380 g were used in this study. Marmosets were housed either in pairs or individually at a temperature of 25±1_ C with 50% relative humidity on a 12-hour light-dark cycle. Animals were fed once daily on a diet of fresh fruit, nuts, Mazuri food pellets, and a supplement of vitamin D3 and had free access to water. On experimental days, the animals were fed following completion of behavioural testing.
Marmosets were treated with 1-methyl-4-phenyl-1,2,3,6-tetrahydropyridine hydrochloride (2.0 mg·kg^−1 subcutaneously; MPTP-HCl; Research Biochemicals International; dissolved in 0.9% sterile saline) daily for 5 consecutive days. This treatment regimen induces a persistent and stable syndrome of akinesia, bradykinesia, rigidity, postural abnormality, incoordination and postural tremor (Jenner and Marsden, 1986; Pearce et al., 1995). Animals were hand fed on a cocktail of Mazuri marmoset jelly, dried milk and pureed bananas until body weight had returned towards pre-treatment levels.
Eight weeks following MPTP-treatment, all animals (n=6) were treated for 30 to 40 days with 12.5 mg·kg^−1 L-DOPA methyl ester (Sigma) plus 12.5 mg·kg^−1 carbidopa (Merck Sharp & Dohme) by oral gavage on a daily basis. Carbidopa was administered 30 to 45 min prior to L-DOPA treatment (Pearce et al., 1995). When animals became dyskinetic, daily dosing with a combination of L-DOPA/carbidopa was changed to a once a week treatment. At this point and on, once a week L-DOPA/carbidopa treatment produced similar level of dyskinesia to that produced at the end of the daily priming period. […]
Motor Activity: Motor activity was measured in test cages equipped with an array of 8 infra red photo sensors (perspex fronted aluminium cages, 50×60×70 cm), The number of beam interruptions due to movement was counted and summed in bins of 10 minute interval using an analogue to digital converter attached to an Intel-based PC. Motor activity was measured over a period of 6 hours and expressed both as time course measuring the number of beam interruption occurring in 10 min time segments, or as the total number of beam interruptions over the test period. […]

Question: For `N=C(N)SCCc1cccc(CCSC(=N)N)c1` [1,3 PB-ITU, S,S′-1,3-Phenylene-bis(1,2-ethanediyl)-bis-isothiourea], which L-Dopa induced dyskinesia is on record?
Answer: did not reduce

Question: With `O=[N+]([O-])c1cccc2cn[nH]c12` [7-NI, 7-nitroindazole] as the compound, how does the L-Dopa induced dyskinesia read?
Answer: reduced

Question: For `N=C(N)SCCN` [S-(2-aminoethyl)-ITU, S-(2-aminoethyl)-isothiourea], which L-Dopa induced dyskinesia is on record?
Answer: did not reduce

Question: With `C=CCC(=N)NCCC[C@H](N)C(=O)O` [Vinyl L-NIO, L-N5-(1-imino-3-butenyl)-ornithine] as the compound, how does the L-Dopa induced dyskinesia read?
Answer: reduced
